Test results published in patent US20220402914A1, “Tryptoline-Based Benzothiazoles and their use as Antibiotics and Antibiotic Resistance-Modifying Agents” (The Regents of the University of Colorado, a body corporate, priority 2019, published 2022).
Converted amounts (≈) assume the structure as drawn. Like-named read-outs stand apart in the source and are kept apart here.

How the values were obtained:
MRSA ATCC BAA-44 [1] = test: Minimum re-sensitizing concentration (MRC) in the presence of cefazolin; format: cell-based, Staphylococcus aureus; conditions: MRSA BAA-44, cefazolin
Method: (§1) RMA activity of the analogues was tested by assessing their abilities to sensitize MRSA to the antibiotic cefazolin (a first-generation cephalosporin). The well characterized strain MRSA ATCC BAA-44 was tested as previously described. […] The minimal inhibitory concentration (MIC), or the lowest concentration at which S. aureus is considered susceptible to an antibacterial, was determined by the standard broth microdilution method detailed in the CLSI handbook. RMA activity was compared by the ratio of MIC/MRC. The half growth inhibitory concentration (GI50) of each analogue against HeLa cells was determined as previously described. […] The luminescence of each sample was recorded in an Envision Multilabel Plate Reader (Perkin Elmer). Results of MICs and MRCs were confirmed by testing in triplicate. The GI50 assay was performed in duplicate.

MRSA ATCC BAA-44 [2] = test: Minimal inhibitory concentration (MIC), standard broth microdilution; format: cell-based, Staphylococcus aureus; conditions: for MIC: MRSA BAA-44 strain; for MIC (in words): MRSA BAA-44
Method: as §1

HeLa cells = test: GI50 against HeLa cells, Cell Titer Glo viability assay; format: cell-based, human; conditions: for GI50: 24 h
Method: as §1

multiple MRSA strains = test: RMA activity in multiple MRSA strains with cephalosporins; format: cell-based, S. aureus
Method: as §1
We next explored the scope of RMA activity of 4ad in different MRSA strains, including MRSA BAA-1683, MRSA BAA-1764, MRSA NR-46411, NRS-384 and NRS-100. These strains were selected because of their diverse geographical origins, genetic background, and resistance profile. We also tested RMA activity in combination with another commercial antibiotic, cefuroxime, which is a second-generation cephalosporin. MRCs in the presence of cefuroxime were determined using the same method as those for cefazolin.

[3] = Staphylococcus aureus, read-out: MIC

Question: `Clc1ccc2sc(N3CCc4c([nH]c5ccc(Cl)cc45)C3)nc2c1` [Compound 4v, 6-Chloro-2-(5-chloro-1,3-benzothiazol-2-yl)-2,3,4,9-tetrahydro-1H-pyrido[3,4-b]indole] was tested. Which “RMA activity (in words)” value (MRSA ATCC BAA-44 [1]) did it give?
Answer: The value was “no RMA activity”.

Question: With `CCn1c2c(c3cc(Cl)ccc31)CCN(c1nc3ccc(Cl)cc3s1)C2` [Compound 4o, 6-Chloro-2-(6-chloro-1,3-benzothiazol-2-yl)-9-ethyl-2,3,4,9-tetrahydro-1H-pyrido[3,4-b]indole] as the compound, how does the “RMA activity (in words)” value (MRSA ATCC BAA-44 [1]) read?
Answer: The value was “abolished”.

Question: Which MIC (MRSA ATCC BAA-44 [2]; [3]) does the source give for `COC(=O)C1Cc2c([nH]c3ccc(Cl)cc23)CN1c1nc2ccc(Cl)cc2s1` (stereo not drawn) [Compound 4m, Methyl 6-chloro-2-(6-chloro-1,3-benzothiazol-2-yl)-2,3,4,9-tetrahydro-1H-pyrido[3,4-b]indole-3-carboxylate] here?
Answer: Its MIC is over 64 µg/mL.

Question: And the “RMA activity (in words)” value (MRSA ATCC BAA-44 [1])?
Answer: Its value is “abolished”.

Question: How did the “RMA activity (in words)” value (MRSA ATCC BAA-44 [1]) turn out when `FC(F)(F)c1cnc2nc(N3CCc4c([nH]c5ccc(Cl)cc45)C3)sc2c1` [Compound 4e, 6-Chloro-2-[6-(trifluoromethyl)[1,3]thiazolo[4,5-b]pyridin-2-yl]-2,3,4,9-tetrahydro-1H-pyrido[3,4-b]indole] was run?
Answer: Its value is “abolished”.

Question: Which results are given for `Clc1ccc2nc(N3CCc4c([nH]c5ccc(Cl)cc45)C3)sc2c1` [Compound 4a, 6-Chloro-2-(6-chloro-1,3-benzothiazol-2-yl)-2,3,4,9-tetrahydro-1H-pyrido[3,4-b]indole]?
Answer: MIC (MRSA ATCC BAA-44 [2]; [3]): > 64 µg/mL; RMA activity (ratio of MIC/MRC) (MRSA ATCC BAA-44 [1]): 32 fold; GI50 (HeLa cells): 13.2 µg/mL (≈ 35.3 µM)

Question: `Clc1ccc2[nH]c3c(c2c1)CCN(c1nc2ncccc2s1)C3` [Compound 4d, 6-Chloro-2-([1,3]thiazolo[4,5-b]pyridin-2-yl)-2,3,4,9-tetrahydro-1H-pyrido[3,4-b]indole] was tested. Which “RMA activity (in words)” value (MRSA ATCC BAA-44 [1]) did it give?
Answer: Its value is “abolished”.

Question: Which MIC (MRSA ATCC BAA-44 [2]; [3]) does the source give for `CNc1cc(C(F)(F)F)c2nc(N3CCc4c([nH]c5ccc(Cl)cc45)C3)sc2c1` [Compound 4ai, 2-(6-Chloro-1,3,4,9-tetrahydro-2H-pyrido[3,4-b]indol-2-yl)-N-methyl-4-(trifluoromethyl)-1,3-benzothiazol-6-amine] here?
Answer: Its MIC is over 32 µg/mL.

Question: And the “RMA activity (in words)” value (MRSA ATCC BAA-44 [1])?
Answer: Its value is “good RMA activities”.

Question: What about the GI50 (HeLa cells) of the same compound?
Answer: Its GI50 is 15.4 µg/mL (≈ 35.2 µM).

Question: Which “RMA activity (in words)” value (MRSA ATCC BAA-44 [1]) does the source give for `Clc1ccc2[nH]c3c(c2c1)CCN(c1nc2ccccc2s1)C3` [Compound 4b, 2-(1,3-Benzothiazol-2-yl)-6-chloro-2,3,4,9-tetrahydro-1H-pyrido[3,4-b]indole] here?
Answer: The value was “no RMA activity”.

Question: Which MIC (MRSA ATCC BAA-44 [2]; [3]) does the source give for `O=C(O)C1CN(c2nc3ccc(Cl)cc3s2)Cc2[nH]c3ccc(Cl)cc3c21` (racemic) [Compound 8, 6-Chloro-2-(6-chlorobenzo[d]thiazol-2-yl)-2,3,4,9-tetrahydro-1H-pyrido[3,4-b]indole-4-carboxylic acid] here?
Answer: The MIC was 32 µg/mL (≈ 76.5 µM).

Question: What about the “RMA activity (in words)” value (MRSA ATCC BAA-44 [1]) of the same compound?
Answer: The value was “significantly decreased or abolished the RMA activity”.

Question: And the GI50 (HeLa cells)?
Answer: Its GI50 is 65 µg/mL (≈ 155 µM).

Question: How did the MIC (MRSA ATCC BAA-44 [2]; [3]) turn out when `FC(F)(F)c1cccc2sc(N3CCc4c([nH]c5ccc(Cl)cc45)C3)nc12` [Compound 4af, 6-Chloro-2-[4-(trifluoromethyl)-1,3-benzothiazol-2-yl]-2,3,4,9-tetrahydro-1H-pyrido[3,4-b]indole] was run?
Answer: Its MIC is over 32 µg/mL.

Question: And the “RMA activity (in words)” value (MRSA ATCC BAA-44 [1])?
Answer: The value was “good RMA activities”.

Question: What about the “worse GI50 relative to 4w” value (HeLa cells) of the same compound?
Answer: The value was 3 fold.

Question: What about the GI50 (HeLa cells) of the same compound?
Answer: Its GI50 is 8 µg/mL (≈ 19.6 µM).

Question: With `FC(F)(F)Oc1ccc2nc(N3CCc4c([nH]c5ccc(Cl)cc45)C3)sc2c1` [Compound 4t, 6-Chloro-2-[6-(trifluoromethoxy)-1,3-benzothiazol-2-yl]-2,3,4,9-tetrahydro-1H-pyrido[3,4-b]indole] as the compound, how does the MIC (MRSA ATCC BAA-44 [2]) read?
Answer: Its MIC is 1 µg/mL (≈ 2.36 µM).

Question: And the “RMA activity (in words)” value (MRSA ATCC BAA-44 [1])?
Answer: Its value is “lost the RMA activity completely”.

Question: And the GI50 (HeLa cells)?
Answer: Its GI50 is 7.3 µg/mL (≈ 17.2 µM).

Question: Which results are given for `Clc1ccc2[nH]c3c(c2c1)CCN(c1nc2cccc(Cl)c2s1)C3` [Compound 4u, 6-Chloro-2-(7-chloro-1,3-benzothiazol-2-yl)-2,3,4,9-tetrahydro-1H-pyrido[3,4-b]indole]?
Answer: MIC (in words) (MRSA ATCC BAA-44 [2]): increased MIC; MIC (MRSA ATCC BAA-44 [2]; [3]): 4 µg/mL (≈ 10.7 µM); RMA activity (in words) (MRSA ATCC BAA-44 [1]): reduced RMA activity; GI50 (HeLa cells): 6.7 µg/mL (≈ 17.9 µM)

Question: `CCOC(=O)C1c2[nH]c3ccc(Cl)cc3c2CCN1c1nc2ccc(Cl)cc2s1` (stereo not drawn) [Compound 4l, Ethyl 6-chloro-2-(6-chloro-1,3-benzothiazol-2-yl)-2,3,4,9-tetrahydro-1H-pyrido[3,4-b]indole-1-carboxylate] was tested. Which “RMA activity (in words)” value (MRSA ATCC BAA-44 [1]) did it give?
Answer: The value was “abolished”.

Question: With `COC(=O)C1CN(c2nc3ccc(Cl)cc3s2)Cc2[nH]c3ccc(Cl)cc3c21` (racemic) [Compound 4n, Methyl 6-chloro-2-(6-chlorobenzo[d]thiazol-2-yl)-2,3,4,9-tetrahydro-1H-pyrido[3,4-b]indole-4-carboxylate] as the compound, how does the MIC (MRSA ATCC BAA-44 [2]; [3]) read?
Answer: Its MIC is over 32 µg/mL.

Question: And the “RMA activity (in words)” value (MRSA ATCC BAA-44 [1])?
Answer: The value was “without compromising the RMA activity”.

Question: And the “RMA activity (ratio of MIC/MRC)” value (MRSA ATCC BAA-44 [1])?
Answer: The value was 32 fold.

Question: What about the GI50 (HeLa cells) of the same compound?
Answer: Its GI50 is 6.6 µg/mL (≈ 15.3 µM).

Question: For `Nc1cc(Cl)c2nc(N3CCc4c([nH]c5ccc(Cl)cc45)C3)sc2c1` [Compound 4ad, 4-Chloro-2-(6-chloro-1,3,4,9-tetrahydro-2H-pyrido[3,4-b]indol-2-yl)-1,3-benzothiazol-6-amine], which “potentiation of antibiotics (in words)” value (multiple MRSA strains; five MRSA strains, cefazolin and cefuroxime) is on record?
Answer: Its value is “potentiates both antibiotic cefazolin and cefuroxime”.

Question: What about the “concentration that re-sensitizes multiple MRSA strains to cephalosporins” value (multiple MRSA strains; multiple MRSA strains, cephalosporins) of the same compound?
Answer: Its value is 2 µg/mL.

Question: What about the MIC (MRSA ATCC BAA-44 [2]) of the same compound?
Answer: Its MIC is over 32 µg/mL.

Question: What about the “RMA activity (in words)” value (MRSA ATCC BAA-44 [1]) of the same compound?
Answer: Its value is “good RMA activities”.

Question: And the GI50 (HeLa cells)?
Answer: Its GI50 is over 100 µg/mL.

Question: For `CN(C)C(=O)C1CN(c2nc3ccc(Cl)cc3s2)Cc2[nH]c3ccc(Cl)cc3c21` (racemic) [Compound 9, 6-Chloro-2-(6-chlorobenzo[d]thiazol-2-yl)-N,N-dimethyl-2,3,4,9-tetrahydro-1H-pyrido[3,4-b]indole-4-carboxamide], which “RMA activity (in words)” value (MRSA ATCC BAA-44 [1]) is on record?
Answer: The value was “significantly decreased or abolished the RMA activity”.

Question: `Cc1ccc2nc(N3CCc4c([nH]c5ccc(Cl)cc45)C3)sc2c1` [Compound 4c, 6-Chloro-2-(6-methyl-1,3-benzothiazol-2-yl)-2,3,4,9-tetrahydro-1H-pyrido[3,4-b]indole] was tested. Which “RMA activity (in words)” value (MRSA ATCC BAA-44 [1]) did it give?
Answer: The value was “no RMA activity”.

Question: What does the source list for `FC(F)(F)c1ccc2nc(N3CCc4c([nH]c5ccc(Cl)cc45)C3)sc2c1` [Compound 4s, 6-Chloro-2-[6-(trifluoromethyl)-1,3-benzothiazol-2-yl]-2,3,4,9-tetrahydro-1H-pyrido[3,4-b]indole]?
Answer: MIC (MRSA ATCC BAA-44 [2]; [3]): > 64 µg/mL; increase of RMA activity relative to 4a (MRSA ATCC BAA-44 [1]): 4 fold; GI50 (HeLa cells): 4.6 µg/mL (≈ 11.3 µM)

Question: For `Clc1ccc2[nH]c3c(c2c1)CCN(c1nc2c(Cl)cccc2s1)C3` [Compound 4w, 6-Chloro-2-(4-chloro-1,3-benzothiazol-2-yl)-2,3,4,9-tetrahydro-1H-pyrido[3,4-b]indole], which MIC (MRSA ATCC BAA-44 [2]; [3]) is on record?
Answer: The MIC was over 64 µg/mL.

Question: What about the “RMA activity (in words)” value (MRSA ATCC BAA-44 [1]) of the same compound?
Answer: Its value is “maintained similar RMA activity”.

Question: What about the GI50 (HeLa cells) of the same compound?
Answer: Its GI50 is 27.7 µg/mL (≈ 74 µM).

Question: Which MIC (MRSA ATCC BAA-44 [2]; [3]) does the source give for `Clc1ccc2[nH]c3c(c2c1)CCN(c1nc2ccc(Br)cc2s1)C3` [Compound 4p, 2-(6-Bromo-1,3-benzothiazol-2-yl)-6-chloro-2,3,4,9-tetrahydro-1H-pyrido[3,4-b]indole] here?
Answer: Its MIC is over 64 µg/mL.

Question: What about the “RMA activity (in words)” value (MRSA ATCC BAA-44 [1]) of the same compound?
Answer: The value was “retained the RMA activity”.

Question: What about the GI50 (HeLa cells) of the same compound?
Answer: The GI50 was 5.1 µg/mL (≈ 12.2 µM).

Question: Which “MIC (in words)” value (MRSA ATCC BAA-44 [2]) does the source give for `Clc1cc(Cl)c2nc(N3CCc4c([nH]c5ccc(Cl)cc45)C3)sc2c1` [Compound 4x, 6-Chloro-2-(4,6-dichloro-1,3-benzothiazol-2-yl)-2,3,4,9-tetrahydro-1H-pyrido[3,4-b]indole] here?
Answer: Its value is “excellent MICs”.

Question: What about the MIC (MRSA ATCC BAA-44 [2]; [3]) of the same compound?
Answer: Its MIC is 2 µg/mL (≈ 4.89 µM).

Question: What about the GI50 (HeLa cells) of the same compound?
Answer: The GI50 was 16.1 µg/mL (≈ 39.4 µM).
